Laboratory results published in patent US7105488B1, “G protein-coupled receptor antagonists” (priority 1998, dated 2006).
Where a SMILES comes first, the peptide text is derived from it.

Legend:
Type in all cases: cell-based
CXCR4 receptor = CXCR4 receptor (Homo sapiens, UniProt P61073); assay: Inhibition of SDF-1α-induced intracellular calcium release (Fura-2/AM) in HeLa and U87 cells; details: for Concentration, required for inhibition of signal transduction: SDF-1α-induced intracellular calcium release, Table 2
Protocol: The effect of the peptides on CXCR4-mediated calcium fluxes in HeLa cells that naturally express the CXCR4 receptor and U87 cells stably expressing the CXCR4 receptor was tested as follows. Cells grown on Nunc cover glass chamber slides were incubated with 1 micromolar Fura-2/AM for 20 min in a CO2-incubator, rinsed with PBS and mounted on the stage of a Zeiss Axiovert inverted microscope. [Ca^2+]i measurements were performed using an Attofluor digital imaging system (Atto Instruments, Rockville, Md.). Fluorescence of Fura was excited at alternating wavelength of 340 and 380 nm. […] Calibrations of [Ca^2+]i signals were performed using Ca^2+ standards containing 1 micromolar Fura. CXCR4 antagonists were tested on HeLa cells and U87 cells. Stromal cell-derived factor-1α (SDF-1α) was used as a specific CXCR4 agonist. CCR5 antagonists, which were used in selectivity studies as described below, were tested on HEK (human kidney […]) cells stably expressing the CCR5 receptor and RANTES was used as an agonist. The antagonist activity of the peptides was evaluated by measuring the inhibition of agonist-evoked intracellular Ca^2+i release. These measurements were carried out in Fura-2/AM-treated cells, utilizing an Attofluor digital imaging system as described above. The agonist was SDF-1 α.

HIV-1RF = assay: Anti-HIV-1 cytoprotection assay, CEM-SS cells infected with HIV-1RF; details: HIV-1 strain RF, FIG. 2
CCKAR = target: T1, CCKAR (Rattus norvegicus, UniProt P30551); assay: Inhibition of CCK-8-induced intracellular calcium release in CHO cells stably transfected with rat CCKAR
T1 construct: expressed in transfected cells; host or cells: CHO cells
T1 sequence (P30551 1-444): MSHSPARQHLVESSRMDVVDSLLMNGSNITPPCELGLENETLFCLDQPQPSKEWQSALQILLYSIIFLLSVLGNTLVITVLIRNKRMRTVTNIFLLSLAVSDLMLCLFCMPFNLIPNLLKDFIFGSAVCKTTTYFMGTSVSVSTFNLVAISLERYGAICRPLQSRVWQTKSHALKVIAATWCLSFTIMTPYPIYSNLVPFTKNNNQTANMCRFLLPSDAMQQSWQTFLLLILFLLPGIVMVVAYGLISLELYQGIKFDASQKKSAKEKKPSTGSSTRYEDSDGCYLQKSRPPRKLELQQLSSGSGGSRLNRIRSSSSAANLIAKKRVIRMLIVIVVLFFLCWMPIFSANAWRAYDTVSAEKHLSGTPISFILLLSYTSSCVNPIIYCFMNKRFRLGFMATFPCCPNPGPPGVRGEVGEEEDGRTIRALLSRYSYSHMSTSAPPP
Protocol: The activity of peptides from the CCKAR transmembrane domain were tested in transfected CHO cells that stably express rat CCKAR (Tarasova et al. (1997), J. Biol. Chem. 272: 14817–14824). Sulfated cholecystokinin octapeptide was the CCKAR agonist. Determination of intracellular calcium release was performed as described in example 1 above.
None of CCKAR-derived peptides served as antagonists of chemokine receptors and none could inhibit HIV-1 infection. The activity of the antagonists in inhibiting signaling through the receptor was compared to the ability to prevent agonist binding (Table 4). Inhibition of signaling was assessed in CCK-8 evoked intracellular calcium release in FURA-2/AM treated CHO cells stably transfected with rat CCKAR (Tarasova, et al. (1997) J. Biol. Chem. 272:14817). Inhibition of ligand binding was measured with the use of a fluorescent agonist, rhodamine green CCK-8 (RG-CCK-8) and quantitative confocal laser scanning microscopy (Tarasova, et al. (1997) J. Biol. Chem. 272:14817). Peptides derived from the first, second, and sixth transmembrane domains inhibited CCK-induced signaling through the CCKAR receptor.

CCR5 receptor = target: T2, CCR5 receptor (Homo sapiens, UniProt P51681); assay: Inhibition of agonist (RANTES)-evoked intracellular calcium release through CCR5; details: U87 cells as printed
T2 construct: expressed in transfected cells
Protocol: CCR5 antagonists, which were used in selectivity studies as described below, were tested on HEK (human kidney […]) cells stably expressing the CCR5 receptor and RANTES was used as an agonist. The antagonist activity of the peptides was evaluated by measuring the inhibition of agonist-evoked intracellular Ca^2+i release. These measurements were carried out in Fura-2/AM-treated cells, utilizing an Attofluor digital imaging system as described above. The agonist was SDF-1 α.

LAV strain of HIV-1 = assay: Anti-HIV-1 assay, CEM-SS cells infected with LAV strain, p24 ELISA; details: FIG. 1
Protocol: The ability of synthetic CXCR4-derived peptides of Table 1 to inhibit HIV-1 infection of CEM-SS cells was tested using an LAV strain of the virus that is known to utilize CXCR4 as a co-receptor. Anti-HIV-1 assay. Buckheit et al. (1993) Antiviral Research 21: 247. The CEM-SS cells were maintained in RPMI 1640 medium containing 10% fetal bovine serum. The cells were placed in each well of a 96-well microtiter plate to a density of 5×10^3 cells per well. The cells were infected with HIV-1 virus at a multiplicity of infection (MOI) previously determined to produce maximal level of viral production at 6 days post infection (MOI of 0.01).
Serial half-log dilutions of test compound were added to appropriate wells in triplicate to evaluate their ability to inhibit HIV-1 infection. AZT was used in parallel as a positive control. Following 6 days of incubation at 37° C., the presence and relative abundance of viral p24 protein was determined by ELISA in cell-free supernatants derived from each well of the microtiter plate. The p24 ELISA kit was purchased from the AIDS Vaccine Program, NCI, FCRDC (Frederick, Md.) and the assay was performed according to the manufacturer's instructions.

CXCR4 receptor, sequence (P61073 whole entry): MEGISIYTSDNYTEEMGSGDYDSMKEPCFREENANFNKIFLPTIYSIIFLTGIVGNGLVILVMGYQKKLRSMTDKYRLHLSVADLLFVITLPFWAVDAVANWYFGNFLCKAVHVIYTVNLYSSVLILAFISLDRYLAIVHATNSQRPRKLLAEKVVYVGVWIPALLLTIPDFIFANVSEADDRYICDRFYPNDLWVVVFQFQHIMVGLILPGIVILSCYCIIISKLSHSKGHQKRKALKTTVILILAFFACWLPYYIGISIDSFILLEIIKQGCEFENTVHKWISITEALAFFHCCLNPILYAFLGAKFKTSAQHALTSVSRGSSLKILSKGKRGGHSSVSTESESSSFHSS
T2 sequence (P51681 whole entry): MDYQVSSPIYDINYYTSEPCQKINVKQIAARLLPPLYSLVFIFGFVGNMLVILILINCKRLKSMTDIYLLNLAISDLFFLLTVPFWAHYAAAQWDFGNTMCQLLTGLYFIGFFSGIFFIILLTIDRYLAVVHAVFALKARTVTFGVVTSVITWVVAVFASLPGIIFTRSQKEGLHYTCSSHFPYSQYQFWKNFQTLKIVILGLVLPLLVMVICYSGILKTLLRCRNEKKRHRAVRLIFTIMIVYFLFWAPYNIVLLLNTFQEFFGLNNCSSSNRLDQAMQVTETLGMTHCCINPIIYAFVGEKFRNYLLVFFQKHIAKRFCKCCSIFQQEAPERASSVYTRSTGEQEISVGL

CC[C@H](C)[C@H](NC(=O)[C@H](Cc1ccccc1)NC(=O)[C@H](CC(=O)O)NC(=O)[C@@H]1CCCN1C(=O)[C@@H](NC(=O)[C@@H](NC(=O)[C@H](CC(C)C)NC(=O)[C@H](CC(C)C)NC(=O)[C@H](CC(C)C)NC(=O)[C@H](C)NC(=O)[C@@H]1CCCN1C(=O)[C@@H](NC(=O)[C@H](Cc1c[nH]c2ccccc12)NC(=O)[C@@H](NC(=O)CNC(=O)[C@@H](NC(=O)[C@H](Cc1ccc(O)cc1)NC(=O)[C@@H](N)C(C)C)C(C)C)C(C)C)[C@@H](C)CC)[C@@H](C)O)[C@@H](C)CC)C(=O)N[C@@H](Cc1ccccc1)C(=O)N[C@@H](C)C(=O)N[C@@H](CC(N)=O)C(=O)N[C@@H](CC(=O)O)C(=O)N[C@@H](CC(=O)O)C(=O)O [Peptide F-4-2] (H-VYVGVWIPALLLTIPDFIFANDD-OH; N-terminus and C-terminus assumed)
Concentration, required for inhibition of signal transduction (CXCR4 receptor): 5 µM
Concentration that completely inhibited infection (HIV-1RF): 1 µM

CSCC[C@H](NC(=O)[C@H](CC(C)C)NC(=O)[C@H](CC(=O)O)NC(=O)[C@H](CO)NC(=O)[C@@H](NC(=O)[C@H](C)NC(=O)[C@H](CC(C)C)NC(=O)[C@H](CO)NC(=O)[C@H](CC(C)C)NC(=O)[C@H](CC(C)C)NC(=O)[C@@H](N)Cc1ccccc1)C(C)C)C(=O)N[C@@H](CC(C)C)C(=O)N[C@@H](CS)C(=O)N[C@@H](CC(C)C)C(=O)N[C@@H](Cc1ccccc1)C(=O)N[C@@H](CS)C(=O)N[C@@H](CCSC)C(=O)N1CCC[C@H]1C(=O)N[C@@H](Cc1ccccc1)C(=O)N[C@@H](CC(N)=O)C(=O)N[C@@H](CC(C)C)C(=O)N1CCC[C@H]1C(=O)O [CCKAR-TM-2-1] (H-FLLSLAVSDLMLCLFCMPFNLP-OH)
Concentration, required for inhibition of signaling (CCKAR; CCK-8-induced intracellular calcium release): 2 µM
Potency in inhibition of ligand signaling compared with binding (CCKAR; signaling versus RG-CCK-8 binding): comparable potencies

LFFL LTVPFWAHYAAAQWDFGDD (LFFLLTVPFWAHYAAAQWDFGDD; CCR5-TM-2-2 GPCR CCR5)
Antagonist activity on CXCR4 signaling, in words (CXCR4 receptor): no effect
Concentration at which agonist induced signaling of the receptor was completely abolished (CCR5 receptor): 500 nM

CC[C@H](C)[C@H](NC(=O)[C@@H](NC(=O)[C@H](Cc1ccccc1)NC(=O)[C@H](CC(C)C)NC(=O)[C@@H](N)CC(C)C)C(C)C)C(=O)N[C@H](C(=O)N[C@@H](CC(C)C)C(=O)N1CCC[C@H]1C(=O)N[C@@H](Cc1ccccc1)C(=O)N[C@@H](Cc1c[nH]c2ccccc12)C(=O)N[C@@H](C)C(=O)N[C@H](C(=O)N[C@@H](CC(=O)O)C(=O)N[C@@H](C)C(=O)N[C@H](C(=O)N[C@@H](C)C(=O)N[C@@H](CC(N)=O)C(=O)N[C@@H](Cc1c[nH]c2ccccc12)C(=O)N[C@@H](Cc1ccc(O)cc1)C(=O)N[C@@H](Cc1ccccc1)C(=O)NCC(=O)N[C@@H](CC(N)=O)C(=O)N[C@@H](CC(=O)O)C(=O)N[C@@H](CC(=O)O)C(=O)O)C(C)C)C(C)C)[C@@H](C)O [Peptide F-2-2] (H-LLFVITLPFWAVDAVANWYFGNDD-OH; N-terminus and C-terminus assumed)
Concentration at which signal transduction was completely blocked (CXCR4 receptor): 0.2 µM
Concentration, required for inhibition of signal transduction (CXCR4 receptor): 0.2 µM
Concentration, required for complete inhibition of [Ca^2+I] release (CXCR4 receptor; TM2-derived peptides, Table 3): 0.2 µM
Concentration that completely inhibited infection (LAV strain of HIV-1): 5 µM
